Experimental data as given in ChEMBL document CHEMBL3600312, “Novel Oxazolidinone-Based Peroxisome Proliferator Activated Receptor Agonists: Molecular Modeling, Synthesis, and Biological Evaluation” (J Med Chem, 2015).
Activity calls are given as the source filed them. The calls are words filed in the database; no cut-off is given here.

How the values were obtained:
[1] = molecular target: T1, Peroxisome proliferator-activated receptor alpha (Homo sapiens, UniProt Q07869); assay: Agonist activity at human PPARalpha transfected in human MCF7 cells after 16 hrs by luciferase reporter gene assay; type: cell-based
T1 sequence (Q07869 whole entry): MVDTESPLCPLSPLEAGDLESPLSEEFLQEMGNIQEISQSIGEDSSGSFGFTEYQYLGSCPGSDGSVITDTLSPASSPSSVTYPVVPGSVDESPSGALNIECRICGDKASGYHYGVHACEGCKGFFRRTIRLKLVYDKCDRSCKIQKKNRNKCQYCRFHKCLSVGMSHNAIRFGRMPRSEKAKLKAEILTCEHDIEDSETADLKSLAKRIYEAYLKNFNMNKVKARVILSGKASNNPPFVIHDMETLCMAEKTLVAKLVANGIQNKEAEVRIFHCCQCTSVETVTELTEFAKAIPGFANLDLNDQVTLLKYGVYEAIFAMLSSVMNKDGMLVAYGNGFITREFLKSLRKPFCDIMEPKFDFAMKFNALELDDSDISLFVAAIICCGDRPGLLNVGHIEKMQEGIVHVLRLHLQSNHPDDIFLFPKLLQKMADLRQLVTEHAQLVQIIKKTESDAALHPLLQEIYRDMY

[2] = molecular target: T2, Peroxisome proliferator-activated receptor gamma (Homo sapiens, UniProt P37231); assay: Agonist activity at human PPARgamma transfected in human MCF7 cells after 16 hrs by luciferase reporter gene assay; type: cell-based
T2 sequence (P37231 whole entry): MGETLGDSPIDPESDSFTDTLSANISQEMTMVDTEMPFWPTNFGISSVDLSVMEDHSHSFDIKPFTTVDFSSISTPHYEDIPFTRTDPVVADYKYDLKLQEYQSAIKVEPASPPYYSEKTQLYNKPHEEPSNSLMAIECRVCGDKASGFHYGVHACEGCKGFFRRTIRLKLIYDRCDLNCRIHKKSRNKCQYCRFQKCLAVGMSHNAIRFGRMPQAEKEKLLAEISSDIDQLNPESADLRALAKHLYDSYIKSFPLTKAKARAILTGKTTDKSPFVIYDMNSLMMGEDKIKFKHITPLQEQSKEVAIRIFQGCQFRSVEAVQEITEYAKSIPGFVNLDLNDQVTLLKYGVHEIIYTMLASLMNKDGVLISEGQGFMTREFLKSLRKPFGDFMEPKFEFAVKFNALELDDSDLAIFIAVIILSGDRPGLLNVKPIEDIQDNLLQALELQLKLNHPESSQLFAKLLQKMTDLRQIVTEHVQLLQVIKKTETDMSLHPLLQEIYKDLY

[3] = test system: Rattus norvegicus; assay: Inhibition of food intake in 24 hrs food derived obese Wistar rat at 3 mg/kg, ip measured up to 120 mins relative to vehicle-treated control; type: functional
[4] = test system: Rattus norvegicus; assay: Inhibition of food intake in 24 hrs food derived obese Wistar rat at 3 mg/kg, ip after 240 mins; type: functional, organism-based
[5] = test system: Rattus norvegicus; assay: Inhibition of food intake in ip dosed 24 hrs food derived obese Wistar rat after 30 to 240 mins; type: functional, organism-based
[6] = test system: Rattus norvegicus; assay: Inhibition of food intake in ip dosed 24 hrs food derived obese Wistar rat after 24 hrs; type: functional, organism-based

Structure (SMILES) | EC50 [1] [nM] | also measured
CCCCCNC(=O)c1ccc(NC(=O)c2cccc(CN3C(=O)OC[C@@H]3Cc3ccccc3)c2)cc1 | > 100000 | –
O=C(NCc1ccccc1)c1ccc(NC(=O)c2cccc(CN3C(=O)OC[C@H]3Cc3ccccc3)c2)cc1 | > 100000 | EC50 [2]: > 100000 nM
CC(C)(C)c1ccc(CNC(=O)c2ccc(NC(=O)c3cccc(CN4C(=O)OC[C@H]4Cc4ccccc4)c3)cc2)cc1 | – | inhibition in vivo at 3 mg/kg [3]: 50%; inhibition [4]: inactive; inhibition [5]: Dose-dependent effect
O=C(NCC1CCCCC1)c1ccc(NC(=O)c2cccc(CN3C(=O)OC[C@H]3Cc3ccccc3)c2)cc1 | > 100000 | EC50 [2]: > 100000 nM
O=C(NCc1ccc(C(F)(F)F)cc1)c1ccc(NC(=O)c2cccc(CN3C(=O)OC[C@@H]3Cc3ccccc3)c2)cc1 | > 100000 | –
CCCCCNC(=O)c1ccc(NC(=O)c2cccc(CN3C(=O)OC[C@H]3Cc3ccccc3)c2)cc1 | – | inhibition [6]: Dose-dependent effect; inhibition [5]: Dose-dependent effect
O=C(NCc1ccc(C(F)(F)F)cc1)c1ccc(NC(=O)c2cccc(CN3C(=O)OC[C@H]3Cc3ccccc3)c2)cc1 | > 100000 | EC50 [2]: > 100000 nM

Now from value to compound, other results behind:

EC50 [1] [nM] | Structure (SMILES) | also measured
1920 | CCCCCC(=O)Nc1ccc(C(=O)Nc2cccc(C[C@H](C)C(=O)N3C(=O)OC[C@H]3Cc3ccccc3)c2)cc1 | –
6620 | CCCCCCCCCCCCNC(=O)c1ccc(NC(=O)c2cccc(CN3C(=O)OC[C@H]3Cc3ccccc3)c2)cc1 | EC50 [2]: > 100000 nM
1980 | O=C(Nc1ccc(C(=O)NC2CC2)cc1)c1cccc(CN2C(=O)OC[C@H]2Cc2ccccc2)c1 | –
966 | C[C@@H](Cc1cccc(NC(=O)c2ccc(NC(=O)Cc3ccc(C(C)(C)C)cc3)cc2)c1)C(=O)N1C(=O)OC[C@H]1Cc1ccccc1 | –
756 | CC(C)(C)c1ccc(CNC(=O)c2ccc(NC(=O)c3cccc(CN4C(=O)OC[C@@H]4Cc4ccccc4)c3)cc2)cc1 | –
981 | CCCCCC(=O)Nc1ccc(C(=O)Nc2cccc(C[C@H](C)C(=O)O)c2)cc1 | –
866 | C[C@@H](Cc1cccc(NC(=O)c2ccc(NC(=O)Cc3ccc(C(C)(C)C)cc3)cc2)c1)C(=O)O | –
